The test system of data set [1] is dynamin-related protein 1 (DRP1). The data set is described as follows: Real-time qPCR, mitochondrial dynamics gene DRP1. It counts as cell-based, human. The settings on record: vs TNF-α/IFN-γ-exposed MSC control (TI); FIG. 2B. As to the method: Real-time qPCR was performed using an Easy-Spin Total RNA Kit (iNtRON, Seongnam, Korea) to extract total RNA from hPD-MSCs and RNA concentration was adjusted to 100 ng/μL using a microplate spectrophotometer (Epoch™ Microplate Spectrophotometer, BioTek, Winooski, VT, USA), and the extracted RNA was reverse transcribed into cDNA using RT PreMix (dT20) (Bioneer, Seoul, Korea) using a SimpliAmp Thermal Cycler (Life Technologies, Carlsbad, CA, USA). Real-time qPCR was performed using a real-time PCR machine (CFX Connect, Bio-Rad, Hercules, CA, USA), SYBR Green Supermix (Bio-Rad) and the relevant primers, and all experiments were performed in triplicate for statistical analysis.
To investigate mitochondrial dynamics, real-time qPCR was performed to analyze the expression of dynamin-related protein 1 (DRP1), which is a mitochondrial division-related gene, and mitofusion 1 (MFN1) and mitofusion 2 (MFN2), which are […] mitochondrial membrane fusion-related genes. As the real-time qPCR analysis method, the same method described in Experimental Example 1-2 above was used, and the results are shown in FIG. 2B.

For a further data set, the system named is NANOG. The data set is described as follows: Real-time qPCR, NANOG stemness gene expression. It counts as cell-based, human. The note with it: TNF-α/IFN-γ-exposed MSCs (TI) treated with compound; FIG. 1B. On the procedure:
(§1) Human placenta-derived mesenchymal stem cells (hPD-MSCs) were harvested from inside the placental chorion, and the harvested cells were cultured in an alpha-Minimum Essential medium (Cytiva, Marlborough, MA, USA) supplemented with 10% fetal bovine serum (ThermoFisher, Waltham, MA, USA), 1% penicillin/streptomycin (ThermoFisher, Waltham, MA, USA), 25 ng/mL human fibroblast growth factor-4 (Peprotech, Rocky Hill, NJ, USA) and 1 μg/mL heparin (Merck, San Francisco, CA, USA). A total of 1×10^5 hPD-MSCs were seeded in a cell culture dish (90×20 mm) (SPL, Pocheon, Korea) and cultured at 37° C. in an incubator containing 5% CO2. The cells were subcultured every 4 days until reaching 70 to 80% confluency. Expanded cells were obtained at passage 12 or 13. During subculture, viable cells were stained with Trypan blue (Merck) and the number of cells was manually counted.
(§2) In a passage for sample extraction, hPD-MSCs were cultured for 24 hours in a medium with or without an example compound (5-[(1,1-dioxido-4-thiomorpholinyl)methyl]-2-phenyl-N-(tetrahydro-2H-pyran-4-yl)-1H-indole-7-amine) while including 2.5 ng/mL TNF-α (Peprotech) and 25 ng/mL IFN-γ (Peprotech).
In the present experiment, the expression levels of stem cell differentiation-related genes and cell cycle-related genes were analyzed by qPCR. […]

For data set [2], the system named is TNF-α/IFN-γ-exposed hPD-MSCs. The data set is described as follows: MSC morphology: bright-field and phalloidin/Hoechst fluorescence images. In kind it is cell-based, human. The note with it: hPD-MSCs with 2.5 ng/mL TNF-α and 25 ng/mL IFN-γ, 24 hours; FIG. 1A. As to the method: as §1, with “counted. […] The morphology of MSCs was confirmed by bright-field images and fluorescence microscope images, stained cells were identified by phalloidin, which specifically labels the F-actin structure, and Hoechst 33342, which labels nuclei, in the fluorescence image, and the results are shown in FIG. 1A. […]” for “counted.”

Data set [3] concerns TNF-α/IFN-γ-exposed hPD-MSCs. The data set is described as follows: Cell viability at each concentration of the example compound. In kind it is cell-based. The note with it: TNF-α/IFN-γ exposure, different concentrations of compound; FIG. 1D. As to the method: as §1, §2
Meanwhile, upon exposure to TNF-α/IFN-γ and treatment with the example compound, cell viability was evaluated, and the results are shown in FIG. 1D.

Each structure is given as a SMILES string.

Turning to `O=S1(=O)CCN(Cc2cc(NC3CCOCC3)c3[nH]c(-c4ccccc4)cc3c2)CC1` [example compound, 5-[(1,1-dioxido-4-thiomorpholinyl)methyl]-2-phenyl-N-(tetrahydro-2H-pyran-4-yl)-1H-indole-7-amine], in data set [1], the DRP1 expression level entry is listed as “slightly reduced”. The “NANOG expression (relative to untreated MSC control)” value in the data set with NANOG is reported as “significantly increased to a level similar to that of the untreated MSC control”. Also, the “abnormal morphology and disorganized microfilaments (F-actin cytoskeletal structure)” value in data set [2] is recorded as “remarkably improved to levels similar to those of the untreated MSC control”. Besides, the cell viability result in data set [3] is on record as “high”.

Values taken from patent US20240374646A1, “COMPOSITION FOR INHIBITING INFLAMMATION OR AGING OF STEM CELLS, AND METHOD FOR INHIBITING INFLAMMATION OR AGING BY USING SAME” (MITOIMMUNE THERAPEUTICS INC., priority 2021, published 2024).
